{"source": "patent US20140356468A1", "about": "“COMPOSITION CONTAINING PAPER MULBERRY EXTRACTS” (AMOREPACIFIC CORPORATION, priority 2010, published 2014)", "key": {"[1]": {"tested_on": "differentiated 3T3-L1 adipocytes", "assay": "Inhibition of lipogenesis (Sudan III staining of adipocytes)", "format": "cell-based, mouse", "design": "key: expressed as +++, ++ and + depending on the degree of staining; expressed as +++, ++ and + depending on the degree of staining; expressed as +++, ++ and + depending on the degree of staining", "conditions": "Sudan III staining grade; positive control 50 μM caffeine", "procedure": "Mouse fibroblast 3T3-L1 cells were seeded into a 6-well culture plate containing 10% fetal bovine serum (FBS)-containing DMEM (Dulbeco's modified eagle's medium (GIBCO BRL, Life Technologes) at a density of 1×10^5 cells/well. After 2 days, the medium was replaced with fresh DMEM (containing 10% FBS), followed by culture for 2 days. Then, the cultured cells were treated with DMEM (containing 10% FBS) containing 1 μg/ml insulin, 0.5 mM IBMX and 0.25 μM dexamethasone to induce differentiation, and after 2 days, the medium was replaced with insulin-containing DMEM, followed by incubation for 5 days. After 5 days, the medium was replaced with normal medium (DMEM containing 10% FBS), and the cells were incubated until the cells morphologically differentiated into adipocytes. In order to measure the effect of the paper mulberry extract on the inhibition of the accumulation of fat in adipocytes, the differentiated 3T3-L1 adipocytes were subjected to Sudan III staining ([…], Sigma-Aldrich). The adipocytes were fixed with 4% paraformaldehyde (pH 7.2) in phosphate buffer at room temperature, and then washed with PBS (phosphate buffered saline), after which the cells were stained with Sudan III and photographed for visual comparison. […] The degree of inhibition of fat accumulation was expressed as +++, ++ and + depending on the degree of staining."}, "[2]": {"tested_on": "differentiated 3T3-L1 adipocytes", "assay": "Stimulation of decomposition of triglyceride in adipocytes (GPO-trinder kit)", "format": "cell-based, mouse", "conditions": "control = 100%; caffeine 50 μM", "procedure": "Mouse fibroblast 3T3-L1 cells were seeded into a 6-well culture plate containing 10% fetal bovine serum (FBS)-containing DMEM (Dulbeco's modified eagle's medium, GIBCO BRL, Life Technologes) at a density of 1×10^5 cells/well. After 2 days, the medium was replaced with fresh DMEM (containing 10% FBS), followed by culture for 2 days. Then, the cultured cells were treated with DMEM (containing 10% FBS) containing 1 μg/ml insulin, 0.5 mM IBMX and 0.25 μM dexamethasone to induce differentiation, and after 2 days, the medium was replaced with insulin-containing DMEM, followed by incubation for 5 days. After 5 days, the medium was replaced with normal medium (DMEM containing 10% FBS), and the cells were incubated until the cells morphologically differentiated into adipocytes. In order to evaluate the effect of the paper mulberry extract on the stimulation of decomposition of triglyceride in adipocytes, a test was carried out using the differentiated […] adipocytes. The 3T3-L1 adipocytes were washed twice with PBS (phosphate buffered saline), and colorless DMEM containing 0.5% fatty acid-free bovine serum albumin (BSA) was added to the cells, and a fraction of the cells was taken and used in the test. As a control, a medium not treated with the test material or the positive control was used. […] (Sigma, St. Louis, Mo., U.S.A.), and the absorbance at 540 nm was measured using an ELISA reader."}, "[3]": {"target": "T1, elastase type III (Sus scrofa, UniProt P00772)", "T1 construct": "purchased Sigma Aldrich E0127", "T1 sequence (P00772 27-266)": "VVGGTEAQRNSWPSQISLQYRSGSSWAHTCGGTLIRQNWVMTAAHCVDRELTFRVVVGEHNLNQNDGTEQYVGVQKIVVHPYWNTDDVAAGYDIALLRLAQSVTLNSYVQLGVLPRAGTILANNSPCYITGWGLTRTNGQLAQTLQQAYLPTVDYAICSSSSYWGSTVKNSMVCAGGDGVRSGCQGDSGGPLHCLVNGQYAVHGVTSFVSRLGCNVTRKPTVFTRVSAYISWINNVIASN", "assay": "Inhibition of elastase activity", "format": "biochemical", "conditions": "elastase test; extract 10 mg/L, EGCG 250 μM; untreated negative control = 100", "procedure": "The elastase inhibitory activity of the paper mulberry extract prepared in Preparation Example 1 was measured in comparison with that of EGCG. The elastase and substrate used were commercially purchased from Sigma Aldrich (Cat. No. E0127, USA). The elastase inhibitory activity was measured in the following manner. […] Then, 100 μL of 0.4514 mg/mL N-SUCCINYL-[…]-NITROANILIDE in the same buffer used above was added to the plate and allowed to react at 25° C. for 15 minutes. After completion of the reaction, the absorbance at 415 nm was measured. For correction, a blank test was carried out in the same manner. The elastase inhibitory activity was calculated using the following equation. Elastase activity inhibition(%)={1-(C-D)/(A-B)}×100 wherein A: absorbance at 415 nm in the case in which the test sample was not added and the enzyme was added; B: absorbance at 415 nm in the case in which the test sample was not added and the enzyme was not added; C: absorbance at 415 nm in the case in which the test sample was added and the enzyme was added; and D: absorbance at 415 nm in the case in which the test sample was added and the enzyme was not added."}, "[4]": {"tested_on": "MITF expression in Melan-a melanocyte cell line MITF-GLuc", "assay": "Stimulation of MITF expression in transformed melanocytes (GLuc reporter)", "format": "cell-based", "conditions": "100 μM, 3 days", "excerpt": "To examine the gray preventing effect of the paper mulberry extract, the effect of the paper mulberry extract on the stimulation of MITF expression was examined as disclosed in Korean Patent Application No. 10-2007-0072182 (entitled “A method for screening a gray hair-preventing substance using a transformed cell line and leukoplakia mice and a composition for preventing gray hair containing the gray hair-preventing substance”). The Melan-a melanocyte cell line MITF-GLuc (accession number: KCLRF-BP-00162) transformed with the expression vector pMITF-GLuc was cultured in RPMI 1640 medium containing 10% fetal bovine serum (FBS), 100 unit/ml penicillin-streptomycin (Gibco), 0.1 μM TPA (Sigma) and 400 μg/ml G418 under the conditions of 37° C. and 10% CO2. The positive control IBMX was purchased from Sigma and used at a concentration of 100 μM. […] After the incubation, to quantify the amount of GLuc, a small amount of the medium was taken, transferred to a measurement plate and allowed to react with a substrate. Specifically, a small amount of the medium was taken from the cell culture dish and transferred to a measurement plate, after which 1× GLuc assay working solution (NEB) was added to the medium at a ratio of 4:1, and the amount of light emitted at […] was measured using a luminometer."}, "[5]": {"tested_on": "Leukoplakia mice (C57bl/6-Mitf^mi-vit)", "assay": "Gray hair prevention and black hair induction in leukoplakia mice (melanin in hair)", "format": "in vivo", "conditions": "topical twice a day, about 3 weeks; extract 2.5%, IBMX 50 mM in vehicle", "procedure": "Leukoplakia mice (C57bl/6-Mitf^mi-vit) were purchased from The Jackson Lab (USA) and used. The effect of the paper mulberry extract on gray hair prevention in the mice was tested in the following manner. The back of 12-week-old mice was depilated such that the depilated area was the same between the mice. From the day following the depilation day, gray hair-preventing substances were applied to the depilated area twice a day. As a vehicle for the gray hair-preventing substance, a mixture of EtOH:1,3-BG:DW=3:2:5 (volume ratio) was used. […] After about 3 weeks, the difference in gray hair prevention effect between the materials has been distinguished, newly grown hairs were collected and the amount of melanin in the hairs was measured using esperase (Novozyme). […] The reaction solution thus obtained was added to a 96-well plate, and the absorbance at 405 nm was measured, thereby measuring the amount of melanin in the reaction solution. As described above, the leukoplakia mouse model in which the occurrence of gray hair was stimulated was treated with each of the negative control, the positive control and the test sample, and the effects of the negative control, the positive control and the test sample were measured visually and by measuring the amount of melanin in the hair."}, "[6]": {"tested_on": "Collagenase (MMP-1)", "assay": "Collagenase (MMP-1) production in human fibroblasts (ELISA)", "format": "cell-based", "conditions": "extract 10 μg/ml, 24 hours; control = 100", "procedure": "The collagenase production inhibitory ability of the paper mulberry extract prepared in Preparation Example 1 was measured in comparison with that of retinoic acid.\nHuman fibroblasts were added to a 96-well microtiter plate containing 2.5% fetal bovine serum-containing DMEM (Dulbecco's Modified Eagle's Media) at a density of 5,000 cells/well and were cultured in a 5% CO2 incubate at 37° C. to a confluence of about 70-80%. Then, the cell culture was treated with 10 μg/ml of the paper mulberry extract of Preparation Example 1 for 24 hours and collected.\nThe production of collagenase in the collected cell culture was measured using a commercially available collagenase measurement instrument (Catalog #: RPN 2610, Amersham Pharmacia, USA). […]\nThe absorbance of the yellowish 96-well plate at 405 nm was measured using a spectrophotometer, and based on the measurements, the degree of synthesis of collagenase was calculated using the following equation 1. Herein, the absorbance of a cell culture collected from a group not treated with the test sample was used as a control.\nCollagenase expression(%)=(absorbance of cell group treated with material/absorbance of control)×100 Equation 1"}, "[7]": {"tested_on": "prostaglandin production in macrophages", "assay": "Inhibition of prostaglandin production in LPS-treated macrophages (ELISA)", "format": "cell-based, mice", "conditions": "percentage relative to 100% for the difference between LPS-treated and non-LPS-treated group", "procedure": "Anti-inflammatory effect was evaluated based on the inhibition of prostaglandin production. The anti-inflammatory effect of the paper mulberry extract of Preparation Example 1 was measured using macrophages. […] Then, 100 μl of the cell suspension was added to each well of a 96-well plate and cultured in a 5% CO2 incubator at 37° C. for 2 hours so that the macrophages were attached to the plate surface. Then, the attached macrophages were washed three times with PBS and used to test the effect of the extract. The cultured macrophages were added to 1%(w/v) LPS-containing RPMI medium at a concentration of 5×10^4 cells/ml and cultured for 12 hours to induce the production of prostaglandin, after which they were treated with 100 μl of the extract. Released prostaglandin was quantitatively analyzed by ELISA. Herein, the prostaglandin production inhibitory activity of the extract was expressed as the percentage of prostaglandin production in the group treated with LPS together with the sample relative to 100% for the difference in prostaglandin production between the LPS-treated group and the non-LPS-treated group."}, "[8]": {"target": "T2, 5α-reductase in HEK293-5αR2 cells (Homo sapiens, UniProt P31213)", "T2 construct": "3×FLAG; expressed in transfected cells; host or cells: HEK293", "T2 sequence (P31213 1-254)": "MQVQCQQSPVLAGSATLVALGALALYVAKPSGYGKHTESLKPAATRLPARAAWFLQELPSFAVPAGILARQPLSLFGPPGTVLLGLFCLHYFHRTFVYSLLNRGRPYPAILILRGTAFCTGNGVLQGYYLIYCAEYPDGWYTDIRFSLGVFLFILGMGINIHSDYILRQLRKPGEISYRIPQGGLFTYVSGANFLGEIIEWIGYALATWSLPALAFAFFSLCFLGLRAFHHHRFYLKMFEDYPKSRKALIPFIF", "assay": "Inhibition of 5α-reductase (testosterone to dihydrotestosterone conversion)", "format": "cell-based", "conditions": "radioactivity in the DHT region/total radioactivity; extract 10 μg/ml, 2 hours", "procedure": "In order to examine the effect of inhibiting 5α-reductase activity, the ratio of [^14C]testosterone-to-[14^C]dihydrotestosteron conversion in HEK293-5αR2 cells was measured. HEK293 cells transfected with p3×FLAG-CMV-5αR2 were added to a 24-well plate at a density of 2.5×10^5 cells/well and cultured (Park et al., 2003, JDS. Vol. 31, ppl 91-98). The next day, the medium was replaced with fresh medium containing an enzyme substrate and an inhibitor. As the substrate of the medium, 0.05 μCi [^14C]testosterone (Amersham Pharmacia biotech, UK) was used. In order to measure the degree of inhibition, 10 μg/ml of the paper mulberry extract of Preparation Example 2 was added to the cells which were then incubated in a 5% CO2 incubator at 37° C. for 2 hours. As a positive control, finasteride was used. The culture medium was collected and, steroid was extracted with 800 μl of ethyl acetate. […]\nThe plastic sample was dried in air, and the amount of isotopes was measured using a Vas system. Specifically, the dried plastic sheet together with an X-ray film was placed in a Vas cassette, and after 1 week, the amounts of the testosterone and dihydrotestosterone isotopes were measured."}}, "data": [{"smiles": "Cn1c(=O)c2c(ncn2C)n(C)c1=O", "note": "[Caffeine, caffeine]", "values": [{"measurement": "Inhibition (%)", "setting": "[1]", "result": "+"}, {"measurement": "Level of released glycerol", "setting": "[2]", "result": 115, "unit": "%"}]}, {"smiles": "O=C(O[C@@H]1Cc2c(O)cc(O)cc2O[C@@H]1c1cc(O)c(O)c(O)c1)c1cc(O)c(O)c(O)c1", "note": "[EGCG]", "values": [{"measurement": "Expression (%)", "setting": "[3]", "result": "90 ± 1.2", "unit": "%"}]}, {"smiles": "CC(C)Cn1c(=O)n(C)c(=O)c2[nH]cnc21", "note": "[IBMX]", "values": [{"measurement": "Percentage (%) of gluciferase production relative to negative control", "setting": "[4]", "result": 180, "unit": "%"}, {"measurement": "Ratio (%) of amount of melanin in hair relative to negative control", "setting": "[5]", "result": 105.9, "unit": "%"}]}, {"smiles": "CC1=C(/C=C/C(C)=C/C=C/C(C)=C/C(=O)O)C(C)(C)CCC1", "note": "[Retinoic acid, retinoic acid]", "values": [{"measurement": "Expression (%) (collagenase)", "setting": "[6]", "result": "75 ± 3.4", "unit": "%"}]}, {"smiles": "CC(=O)Oc1ccccc1C(=O)O", "note": "[aspirin]", "values": [{"measurement": "Prostaglandin production (inhibitory effect on prostaglandin production)", "setting": "[7]", "result": 25.0, "unit": "%"}]}, {"smiles": "CC(C)(C)NC(=O)[C@H]1CC[C@H]2[C@@H]3CC[C@H]4NC(=O)C=C[C@]4(C)[C@H]3CC[C@]12C", "note": "[finasteride]", "values": [{"measurement": "Conversion (%)", "setting": "[8]", "result": 27.6, "unit": "%"}]}]}
